# Measurements reported in article PMC9456400 (International Journal of Molecular Sciences, 2022).
# Columns and labels:
# [1] = cited from earlier work
# Huh-7 cells = test: UHPLC-ESI-QTOF-MS/MS lipidomics; format: cell-based, human
# Text: We then questioned whether lorlatinib used at concentrations efficacious against ALK-rearranged lung cancer cells but non-toxic to ALK-negative cells could promote substantial lipidome changes in Huh-7 cells (Figure 1B; Table 1). Accordingly, […], and the lipidome was characterized in a semi-targeted approach using a UHPLC-ESI-QTOF-MS/MS method, in which we matched mass spectra with commercial standards (SPLAH mix), databases such as METLIN-PCDL and Lipid MAPS (accessed on 1 July 2022), as well as corroboration of tentative lipid species upon obtaining their MS/MS spectrum. Representative chromatograms of lipidomic analyses in Huh-7 cells can be found in Figure S1.
# Lipid extraction, preparation of external calibration curves, and quality control approaches were carried out as described. Samples (2 μL) were injected directly into a 1290 Infinity UHPLC system coupled with a dual Agilent jet stream ESI source to a 6550 QTOF-MS instrument (Agilent Technologies, Santa Clara, CA, USA). UHPLC-ESI-QTOF-MS conditions, data analysis and indirect quantification of selected lipid species using MassHunter Qualitative Analysis B.07.00 software (Agilent Technologies), and corroboration of the tentative characterization of compound match entities using the Lipid Maps database (www.lipidmaps.org, accessed on 1 July 2022) and targeted MS/MS acquisition on LC-QTOF-MS instrument, have been previously described in detail.
# Differentially expressed lipid species from untargeted lipidomic data were analyzed by generating volcano plots indicating statistical significance versus magnitude of fold-change for each lipid species (cutoff of Benjamini–Hochberg corrected p-value < 0.05 and log2 fold-change > 1 or […]).
# [2] = pooled safety analysis (n = 295) ref 14, 15
# [3] = Huh-7 cells, SBN 100 µmol/L, lorlatinib 1 µmol/L, median
smiles,measurement,setting,value
"C[C@H]1Oc2cc(cnc2N)-c2c(nn(C)c2C#N)CN(C)C(=O)c2ccc(F)cc21 [lorlatinib, (10R)-7-amino-12-fluoro-2,10,16-trimethyl-15-oxo-10,15,16,17-tetrahydro-2H-8,4-(metheno)pyrazolo [4,3-h][2,5,11]-benzoxadiazacyclotetradecine-3-carbonitrile]",Incidence of hypercholesteremia and hypertriglyceridemia,[1]; lung cancer patients,> 80%
same,"Hyperlipidemia, median time to onset",[1]; patients,15 days
same,Frequency of grade 3 or 4 elevations in total cholesterol and triglycerides (both),[1]; phase 2 study B7461001 (NCT01970865) ref 2,16%
same,Incidence of hypercholesteremia,[1]; [2],61%
same,Incidence of hypertriglyceridemia,[1]; [2],82%
same,"Change of lipid species, single agent","Huh-7 cells; Huh-7, 48 h, lorlatinib 1 μmol/L, silibinin 100 μmol/L","significantly increase several species of ChoE, numerous molecular species of long-chain TG, and several DG, LPC, and PC species"
same,Relative concentration of ChoE 16:0,Huh-7 cells; [3],11.335 µmol/mg protein
same,Relative concentration of ChoE 16:1,Huh-7 cells; [3],25.820 µmol/mg protein
same,Relative concentration of ChoE 17:0,Huh-7 cells; [3],2.170 µmol/mg protein
same,Relative concentration of ChoE 17:1,Huh-7 cells; [3],5.670 µmol/mg protein
same,Relative concentration of ChoE 18:0,Huh-7 cells; [3],4.365 µmol/mg protein
same,Relative concentration of ChoE 18:2,Huh-7 cells; [3],33.284 µmol/mg protein
same,Relative concentration of ChoE 18:3,Huh-7 cells; [3],12.818 µmol/mg protein
same,Relative concentration of ChoE 20:2,Huh-7 cells; [3],6.459 µmol/mg protein
same,Relative concentration of ChoE 20:3,Huh-7 cells; [3],42.167 µmol/mg protein
same,Relative concentration of ChoE 20:4,Huh-7 cells; [3],107.967 µmol/mg protein
same,Relative concentration of ChoE 20:5,Huh-7 cells; [3],68.788 µmol/mg protein
same,Relative concentration of ChoE 22:4,Huh-7 cells; [3],27.538 µmol/mg protein
same,Relative concentration of ChoE 22:5,Huh-7 cells; [3],59.058 µmol/mg protein
same,Relative concentration of DG 34:1,Huh-7 cells; [3],16.654 µmol/mg protein
same,Relative concentration of DG 34:2,Huh-7 cells; [3],17.722 µmol/mg protein
same,Relative concentration of DG 34:3,Huh-7 cells; [3],2.474 µmol/mg protein
same,Relative concentration of DG 36:0,Huh-7 cells; [3],2.250 µmol/mg protein
same,Relative concentration of DG 36:1,Huh-7 cells; [3],8.885 µmol/mg protein
same,Relative concentration of DG 36:2,Huh-7 cells; [3],20.022 µmol/mg protein
same,Relative concentration of DG 36:3,Huh-7 cells; [3],2.186 µmol/mg protein
same,Relative concentration of DG 36:4,Huh-7 cells; [3],4.172 µmol/mg protein
same,Relative concentration of DG 40:4,Huh-7 cells; [3],9.158 µmol/mg protein
same,Relative concentration of LPC 15:0,Huh-7 cells; [3],0.094 µmol/mg protein
same,Relative concentration of LPC 16:0,Huh-7 cells; [3],3.165 µmol/mg protein
same,Relative concentration of LPC 16: e,Huh-7 cells; [3],0.023 µmol/mg protein
same,Relative concentration of LPC 18:0,Huh-7 cells; [3],1.911 µmol/mg protein
same,Relative concentration of LPC 18:0e,Huh-7 cells; [3],0.014 µmol/mg protein
same,Relative concentration of LPC 18:1,Huh-7 cells; [3],1.630 µmol/mg protein
same,Relative concentration of LPC 18:2,Huh-7 cells; [3],0.188 µmol/mg protein
same,Relative concentration of LPC 20:0,Huh-7 cells; [3],0.047 µmol/mg protein
same,Relative concentration of LPC 20:3,Huh-7 cells; [3],0.080 µmol/mg protein
same,Relative concentration of PC 30:0,Huh-7 cells; [3],6.654 µmol/mg protein
same,Relative concentration of PC 31:0,Huh-7 cells; [3],3.243 µmol/mg protein
same,Relative concentration of PC 32:0,Huh-7 cells; [3],20.672 µmol/mg protein
same,Relative concentration of PC 32:1,Huh-7 cells; [3],56.675 µmol/mg protein
same,Relative concentration of PC 32:1e,Huh-7 cells; [3],0.780 µmol/mg protein
same,Relative concentration of PC 32:2,Huh-7 cells; [3],7.800 µmol/mg protein
same,Relative concentration of PC 33:0,Huh-7 cells; [3],3.109 µmol/mg protein
same,Relative concentration of PC 33:1,Huh-7 cells; [3],12.338 µmol/mg protein
same,Relative concentration of PC 33:2,Huh-7 cells; [3],1.113 µmol/mg protein
same,Relative concentration of PC 34:0,Huh-7 cells; [3],5.917 µmol/mg protein
same,Relative concentration of PC 34:1,Huh-7 cells; [3],93.696 µmol/mg protein
same,Relative concentration of PC 34:1e,Huh-7 cells; [3],0.856 µmol/mg protein
same,Relative concentration of PC 34:2,Huh-7 cells; [3],49.219 µmol/mg protein
same,Relative concentration of PC 34:2e,Huh-7 cells; [3],0.709 µmol/mg protein
same,Relative concentration of PC 34:3,Huh-7 cells; [3],5.578 µmol/mg protein
same,Relative concentration of PC 34:4,Huh-7 cells; [3],0.930 µmol/mg protein
same,Relative concentration of PC 35:1,Huh-7 cells; [3],6.392 µmol/mg protein
same,Relative concentration of PC 35:2,Huh-7 cells; [3],6.219 µmol/mg protein
same,Relative concentration of PC 35:4,Huh-7 cells; [3],1.817 µmol/mg protein
same,Relative concentration of PC 36:0,Huh-7 cells; [3],0.209 µmol/mg protein
same,Relative concentration of PC 36:1,Huh-7 cells; [3],24.222 µmol/mg protein
same,Relative concentration of PC 36:2,Huh-7 cells; [3],46.840 µmol/mg protein
same,Relative concentration of PC 36:2e,Huh-7 cells; [3],0.101 µmol/mg protein
same,Relative concentration of PC 36:3,Huh-7 cells; [3],20.945 µmol/mg protein
same,Relative concentration of PC 36:4,Huh-7 cells; [3],26.422 µmol/mg protein
same,Relative concentration of PC 36:5,Huh-7 cells; [3],6.790 µmol/mg protein
same,Relative concentration of PC 36:5e,Huh-7 cells; [3],0.749 µmol/mg protein
